Experimental findings from ChEMBL document CHEMBL1146444, “RKS-1778, a new mammalian cell-cycle inhibitor and a key intermediate of the [11]cytochalasin group” (J Nat Prod, 1997) are described below.

Active and inactive are the calls of the source. The calls are words filed in the database; no cut-off is given here.

A short description of test [1]: Cell cycle arrest in mouse temperature-sensitive FT210 cells by accumulation at M phase at 2.0 uM by flow cytometry. The format is functional, cell-based. (A flow cytometer gives signals particle by particle.)
Test [2] can be described thus: Cell cycle arrest in mouse temperature-sensitive FT210 cells by accumulation at M phase at 2.1 uM by flow cytometry. The format is functional, cell-based.

As to `CC(=O)O[C@@H]1/C=C/[C@](C)(O)C[C@@H](C)C/C=C/[C@H]2[C@@H]3O[C@]3(C)[C@@H](C)[C@H]3[C@H](Cc4ccccc4)NC(=O)[C@@]312`, the result in test [1] and in test [2] was Active.
On to `CC(=O)O[C@@H]1/C=C/[C@](C)(O)C[C@@H](C)C/C=C/[C@H]2C=C(C)[C@@H](C)[C@H]3[C@H](Cc4ccccc4)NC(=O)[C@]321`, for which the result in test [1] and in test [2] was Active.
